Assay results published in publication PMC7866009, “Evaluation of Nanotargeted ^111In-Cyclic RGDfK-Liposome in a Human Melanoma Xenotransplantation Model” (International Journal of Molecular Sciences, 2021).
Non-standard residues stand in square brackets, D forms with d.

Experiments:
[1] = tested on: αVβ3 integrin-mediated adhesion of A375.S2 cells; assay: CytoSelect cell adhesion assay of A375.S2 cells on extracellular matrix proteins; assay type: cell-based, human; conditions: 100 nM; cells adhere to coated plate at 37 °C (1 h in legend, 90 min in method); crystal violet OD 560 nm; five experiments
Experimental: Next, we tested the effect of the cyclic RGDfK-liposome on the αVβ3 integrin -mediated cellular adhesion using human malignant melanoma A375.S2 cells on recombinant extracellular matrix proteins.
Figure 1 Evaluating the effect of the cyclic RGDfK-liposome on αVβ3 integrin-mediated cell adhesion. […] A375.S2 cells was pretreated with 100 nM cRGDfV, cRGDfK, cRGDfK-PEG2000-DSPE or the cRGDfK-liposome and allowed to adhere to a coating of fibronectin, collagenI or collagen IV for 1 h at 37 °C before washing and detection of cell adhesion (B) or followed by staining with FITC-labeled mouse anti-human CD51/CD61 monoclonal antibody (C). […] These experiments were performed for five times.
Adhesion assay were performed with CytoSelect TM Cell Adhesion Assay Kit. Principle, A375.S2 cells (1 × 10^6/well) in working solution (serum-free MEM medium, 1mM Mn^2+, and 0.5% bovine serum albumin) were allowed to adhere to extracellular matrix proteins-coated plate for 90 min at 37 °C. Cells were analyzed for binding in the presence or absence of test subjects. Non-adherent cells were removed by a flick wash. The adherent cells were stained with crystal violet and examined the optical density at λmax 560 nm.

integrin αVβ3 = conditions: cited from earlier work
Text: The arginin-glycine-aspatic acid (RGD) sequence is the cell attachment site of a large number of adhesive extracellular matrix, blood, and cell surface proteins, and nearly half of the over 20 known integrins recognize this sequence in their adhesion protein ligands. The integrin-binding selective activity to only one or a few of the RGD-directed integrins can be designed by cyclizing peptides with selected sequences around the RGD.

[2] = molecular target: αVβ3 integrin (human (endogenous in A375.S2)) (UniProt P06756)
UniProt P06756, sequence (P06756 31-1048, chain 1 of 2): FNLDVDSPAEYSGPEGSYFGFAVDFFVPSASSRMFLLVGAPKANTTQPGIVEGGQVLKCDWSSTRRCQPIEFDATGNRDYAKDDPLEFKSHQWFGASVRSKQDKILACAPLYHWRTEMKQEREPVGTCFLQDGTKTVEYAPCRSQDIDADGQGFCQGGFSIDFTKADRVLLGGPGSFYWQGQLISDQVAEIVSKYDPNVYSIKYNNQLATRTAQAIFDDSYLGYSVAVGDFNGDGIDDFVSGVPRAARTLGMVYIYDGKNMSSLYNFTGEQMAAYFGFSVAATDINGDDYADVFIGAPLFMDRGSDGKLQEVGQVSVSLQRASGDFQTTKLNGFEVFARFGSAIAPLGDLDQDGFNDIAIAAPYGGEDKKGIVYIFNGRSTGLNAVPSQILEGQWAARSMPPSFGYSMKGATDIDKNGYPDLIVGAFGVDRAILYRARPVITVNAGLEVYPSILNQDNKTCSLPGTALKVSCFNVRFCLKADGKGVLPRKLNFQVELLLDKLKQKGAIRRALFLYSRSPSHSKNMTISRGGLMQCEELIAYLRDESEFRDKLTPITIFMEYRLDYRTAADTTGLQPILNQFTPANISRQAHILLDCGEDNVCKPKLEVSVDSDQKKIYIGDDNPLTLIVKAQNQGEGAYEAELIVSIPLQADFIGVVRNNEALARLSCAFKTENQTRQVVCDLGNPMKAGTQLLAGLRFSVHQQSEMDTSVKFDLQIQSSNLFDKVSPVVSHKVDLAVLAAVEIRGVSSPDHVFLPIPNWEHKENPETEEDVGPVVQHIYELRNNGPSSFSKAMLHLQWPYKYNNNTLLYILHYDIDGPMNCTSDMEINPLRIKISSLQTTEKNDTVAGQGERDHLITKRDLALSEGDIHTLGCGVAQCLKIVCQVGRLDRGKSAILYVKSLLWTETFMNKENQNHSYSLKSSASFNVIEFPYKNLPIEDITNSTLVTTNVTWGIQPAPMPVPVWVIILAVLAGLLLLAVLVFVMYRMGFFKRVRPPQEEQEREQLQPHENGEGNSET
UniProt P06756, sequence (P05106 27-788, chain 2 of 2, further chain): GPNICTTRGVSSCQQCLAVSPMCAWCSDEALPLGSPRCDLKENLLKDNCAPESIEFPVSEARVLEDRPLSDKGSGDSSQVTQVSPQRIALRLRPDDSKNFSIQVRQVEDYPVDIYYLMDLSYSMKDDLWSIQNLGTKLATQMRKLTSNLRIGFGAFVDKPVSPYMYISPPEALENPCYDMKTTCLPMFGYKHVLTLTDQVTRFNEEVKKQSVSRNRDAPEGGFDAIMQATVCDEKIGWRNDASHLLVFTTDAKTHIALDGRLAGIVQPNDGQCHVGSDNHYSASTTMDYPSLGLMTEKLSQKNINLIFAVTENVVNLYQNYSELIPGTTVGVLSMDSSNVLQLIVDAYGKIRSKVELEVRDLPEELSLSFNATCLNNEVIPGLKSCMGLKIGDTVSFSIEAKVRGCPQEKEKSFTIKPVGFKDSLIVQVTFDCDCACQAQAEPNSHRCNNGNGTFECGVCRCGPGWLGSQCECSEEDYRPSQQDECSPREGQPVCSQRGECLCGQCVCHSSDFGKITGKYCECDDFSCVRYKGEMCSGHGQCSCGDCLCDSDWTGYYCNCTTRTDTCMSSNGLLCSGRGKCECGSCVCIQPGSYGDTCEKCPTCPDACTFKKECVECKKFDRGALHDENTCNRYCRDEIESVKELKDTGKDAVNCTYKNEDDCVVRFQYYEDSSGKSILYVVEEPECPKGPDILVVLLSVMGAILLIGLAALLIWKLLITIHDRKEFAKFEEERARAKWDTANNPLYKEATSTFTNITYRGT

[3] = molecular target: αVβ3 integrin (human (endogenous in A375.S2)) (UniProt P06756); remark: listed apart in the source

For `N=C(N)NCCC[C@@H]1NC(=O)[C@H](CCCCN)NC(=O)[C@@H](Cc2ccccc2)NC(=O)[C@H](CC(=O)O)NC(=O)CNC1=O` [cRGDfK], the “A375.S2 cell adhesion to fibronectin, collagen I, and collagen IV” value [1] is given as “markedly reduced” and the “binding affinity for integrin αVβ3” value (integrin αVβ3) is given as “high binding affinity”.

For `CC(C)[C@@H]1NC(=O)[C@@H](Cc2ccccc2)NC(=O)[C@H](CC(=O)O)NC(=O)CNC(=O)[C@H](CCCNC(=N)N)NC1=O` [cRGDfV], the “A375.S2 cell adhesion to fibronectin, collagen I, and collagen IV” value [1] is given as “markedly reduced” and the “binding affinity for integrin αVβ3” value (integrin αVβ3) is given as “high binding affinity”.

B1: cyclic RGDfK-liposome (peptide)
peptide: cyclo(RGD[dF]K)
modifications: also: conjugated via NHS-PEG2000-DSPE, inserted into PEGylated liposome
In the case of B1, the tumor-to-blood ratio of the 111In-labeled cyclic RGDfK-liposome, mice without a metastatic growth of human melanoma cells (111In-liposome without peptide: 1) [2] is reported as 4.8, the uptake of the 111In-labeled cyclic RGDfK-liposome in tumor, mice without a metastatic growth of human melanoma cells (111In-liposome without peptide: 2.2) [2] is reported as 5.3 %ID/g and the tumor-to-blood ratio of the 111In-labeled cyclic RGDfK-liposome, mice with a metastatic growth of human melanoma cells (111In-liposome without peptide: 1.3) [3] is reported as 5.6. For the same molecule, the uptake of the 111In-labeled cyclic RGDfK-liposome in tumor (jejunal lymph node), mice with a metastatic growth of human melanoma cells (111In-liposome without peptide: 2.9) [3] was 6.2 %ID/g.
